Measurements: publication PMC10709440, “High-throughput ligand profile characterization in novel cell lines expressing seven heterologous insect olfactory receptors for the detection of volatile plant biomarkers” (Scientific Reports, 2023)
Where two headings read alike, the source gives them in different places.

Legend:
[1] = molecular target: T1, Drosophila OR49b (Drosophila melanogaster, UniProt Q9V6H2); test: cell-based; conditions: for activation at 1 µM / activation at 10 µM / activation at 100 µM: HEK293; for Average response / OR49b response (VUAA1-normalized) at 1 μM / OR49b response (VUAA1-normalized) at 10 μM / OR49b response (VUAA1-normalized) at 100 μM: OR49b cell line; for Average response: mean of biological replicates
T1 construct: expressed in transfected cells
T1 sequence (Q9V6H2 1-375): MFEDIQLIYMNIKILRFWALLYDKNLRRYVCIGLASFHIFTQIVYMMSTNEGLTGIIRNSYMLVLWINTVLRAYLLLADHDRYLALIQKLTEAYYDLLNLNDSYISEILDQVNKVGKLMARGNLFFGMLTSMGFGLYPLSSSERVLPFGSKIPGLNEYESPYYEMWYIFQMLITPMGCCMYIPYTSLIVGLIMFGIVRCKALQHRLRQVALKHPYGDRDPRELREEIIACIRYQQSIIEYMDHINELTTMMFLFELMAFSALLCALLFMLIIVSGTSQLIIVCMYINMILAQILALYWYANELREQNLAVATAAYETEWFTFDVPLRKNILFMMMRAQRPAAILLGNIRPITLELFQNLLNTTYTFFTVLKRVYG
T1 sequence (Q9VNB5 1-486 partner): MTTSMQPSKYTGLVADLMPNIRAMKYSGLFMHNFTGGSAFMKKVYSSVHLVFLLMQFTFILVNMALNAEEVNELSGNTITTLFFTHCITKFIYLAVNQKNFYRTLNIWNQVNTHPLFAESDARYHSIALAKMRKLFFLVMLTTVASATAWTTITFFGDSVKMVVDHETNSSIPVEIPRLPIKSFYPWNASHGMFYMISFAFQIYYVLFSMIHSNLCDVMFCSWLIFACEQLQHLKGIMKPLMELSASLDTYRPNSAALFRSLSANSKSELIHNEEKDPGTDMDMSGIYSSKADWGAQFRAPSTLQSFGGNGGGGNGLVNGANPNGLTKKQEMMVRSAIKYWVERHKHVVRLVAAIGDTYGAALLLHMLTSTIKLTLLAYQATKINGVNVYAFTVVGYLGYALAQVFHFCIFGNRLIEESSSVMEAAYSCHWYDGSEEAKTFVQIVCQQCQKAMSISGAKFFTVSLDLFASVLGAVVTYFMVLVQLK
Outline: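 Responses are VUAA1-normalized ΔF: each VOC-evoked calcium signal, (FMAX−F0)/F0 over 30 s after injection, divided by the same line's mean 50 µM VUAA1 response. Cells were doxycycline-induced HEK293 with GCaMP6 and the cognate Drosophila OR, in HEPES buffer pH 7.3; ligands tested 0.01–100 μM.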

[2] = test system: OR13a; design: method as in earlier work; conditions: DoOR database value, ref DoOR, cited from earlier work
[3] = test system: OR98a; design: method as in earlier work; conditions: DoOR database value, ref DoOR, cited from earlier work
[4] = test system: OR49b; design: method as in earlier work; conditions: DoOR database value, ref DoOR, cited from earlier work
[5] = test system: OR71a; design: method as in earlier work; conditions: DoOR database value, ref DoOR, cited from earlier work
[6] = test system: OR85b; design: method as in earlier work; conditions: DoOR database value, ref DoOR, cited from earlier work
[7] = test system: OR10a; design: method as in earlier work; conditions: DoOR database value, ref DoOR, cited from earlier work
[8] = test system: OR47a; design: method as in earlier work; conditions: DoOR database value, ref DoOR, cited from earlier work
[9] = VOC concentration 1 μM, read-out: OR49b response (VUAA1-normalized response)
[10] = VOC concentration 10 μM, read-out: OR49b response (VUAA1-normalized response)
[11] = VOC concentration 100 μM, read-out: OR49b response (VUAA1-normalized response)
[12] = 1 μM VOC, 50 μM VUAA1 = 1, read-out: OR49b Average response (VUAA1-normalized)
[13] = 10 μM VOC, 50 μM VUAA1 = 1, read-out: OR49b Average response (VUAA1-normalized)
[14] = 100 μM VOC, 50 μM VUAA1 = 1, read-out: OR49b Average response (VUAA1-normalized)
[15] = ligand concentration 1 (unit not given), threshold 0.05, below shown as 0
[16] = ligand concentration 10 (unit not given), threshold 0.05, below shown as 0
[17] = ligand concentration 100 (unit not given), threshold 0.05, below shown as 0

Row | Compound | activation at 1 µM [1, 9] | activation at 10 µM [1, 10] | activation at 100 µM [1, 11] | Average response ([1]; odorant cc. 1 µM) | Average response ([1]; odorant cc. 10 µM) | Average response ([1]; odorant cc. 100 µM) | OR13a DoOR response [2] | OR98a DoOR response [3] | OR49b DoOR response [4] | OR71a DoOR response [5] | OR85b DoOR response [6] | OR10a DoOR response [7] | OR47a DoOR response [8] | DF norm AVERAGE OR49b [1, 15] | DF norm AVERAGE OR49b [1, 16] | DF norm AVERAGE OR49b [1, 17] | OR49b response (VUAA1-normalized) at 1 μM ([1]; VOC concentration 1 μM) | OR49b response (VUAA1-normalized) at 10 μM ([1]; VOC concentration 10 μM) | OR49b response (VUAA1-normalized) at 100 μM ([1]; VOC concentration 100 μM) | OR98a DoOR response ([3]; OR98a) | also measured
1 | C=CC(O)CCCCC (stereo not drawn) [1-octen-3-ol] | 0% | 0% | 0% | 0.00 | 0.0174 | 0.0145 | 0.78 | 0.58 | 0.016 | 0.09 | 0.53 | 0.019 | 0.25 |  |  |  |  |  |  |  | DF norm AVERAGE OR49b [1]: 0
2 | CCCCCC(C)=O [2-heptanone] | 0% | 0% | 0% | 0.00 | 0.00 | 0.02 | 0.26 | 0.62 | 0.011 | 0.045 | 0.65 | 0.016 | 0.58 |  |  |  |  |  |  |  | DF norm AVERAGE OR49b [1]: 0
3 | CCCCCC(O)CC (stereo not drawn) [3-octanol] | 0% | 7% | 5.5% | 0.00 | 0.07 | 0.055 | 0.58 | 0.59 | 0.03 | 0.01 | 0.68 | 0.12 | 0.47 |  |  |  |  |  |  |  | 
4 | CCCCCC(=O)CC [3-octanone] | 0% | 17% | 0% | 0.0421 | 0.17 | 0.0439 |  |  |  | 0.016 |  |  |  |  |  |  |  |  |  |  | 
5 | Cc1ccc(O)cc1 [4-methylphenol] | 0% | 11% | 44% | 0.0329 | 0.11 | 0.44 | 0.019 | 0.085 | 0.43 | 0.64 | 0.37 | 0.24 | -0.037 |  |  |  |  |  |  |  | activation at 1 µM [1, 12]: 3%; activation at 10 µM [1, 13]: 11%; activation at 100 µM [1, 14]: 44%
6 | CC(=O)c1ccccc1 [acetophenone] | 0% | 0% | 13% | 0.00 | 0.00 | 0.13 | 0.02 | 0.21 | 0.07 | 0.05 | 0.04 | 0.64 | 0.11 | 0 | 0 | 0.1277 |  |  |  |  | activation at 1 µM [1, 12]: 0%; activation at 10 µM [1, 13]: 0%; activation at 100 µM [1, 14]: 13%
7 | CC1=CCC2CC1C2(C)C (stereo not drawn) [alpha-pinene] | 0% | 0% | 0% | 0.0281 | 0.00 | 0.00 | 0.10 | 0.43 | 0.018 | 0.04 | 0.15 | 0.004 | 0.035 | 0 | 0 | 0 |  |  |  |  | 
8 | CC(C)=CCC/C(C)=C/CC/C(C)=C/CO [e,e-farnesol] |  |  |  | 0.00 | 0.06 | 0.00 | 0.075 |  |  | 0.11 |  | 0.014 |  | 0 | 0.06141 | 0 |  |  |  |  | OR49b response (VUAA1-normalized response) ([1]; VOC concentration 1 μM): 0.00; OR49b response (VUAA1-normalized response) ([1]; VOC concentration 10 μM): 0.06; OR49b response (VUAA1-normalized response) ([1]; VOC concentration 100 μM): 0.00
9 | C=CC(C)(O)CCC=C(C)C (stereo not drawn) [linalool] |  |  |  | 0.00 | 0.00 | 0.0212 |  |  |  |  |  |  |  | 0 | 0 | 0 | 0.00 | 0.00 | 0.00 | 0.47 | OR13a DoOR response ([2]; OR13a): 0.16; OR49b DoOR response ([4]; OR49b): 0.016; OR85b DoOR response ([6]; OR85b): 0.16; OR10a DoOR response ([7]; OR10a): 0.001; OR47a DoOR response ([8]; OR47a): 0.04
10 | COC(=O)c1ccccc1 [methyl benzoate] |  |  |  | 0.13 | 0.00 | 0.05 |  |  |  |  |  |  |  | 0.1337 | 0 | 0 | 0.13 | 0.00 | 0.00 | 0.70 | OR49b DoOR response ([4]; OR49b): 0.035; OR71a DoOR response ([5]; OR71a): 0.28; OR85b DoOR response ([6]; OR85b): 0.036; OR10a DoOR response ([7]; OR10a): 0.63; OR47a DoOR response ([8]; OR47a): 0.09
11 | Cc1ccc(C(C)C)cc1 [p-cymene] |  |  |  | 0.00 | 0.00 | 0.00 |  |  |  |  |  |  |  | 0 | 0 | 0 | 0.00 | 0.00 | 0.00 | -0.012 | OR49b DoOR response ([4]; OR49b): 0.014; OR71a DoOR response ([5]; OR71a): 0.063; OR85b DoOR response ([6]; OR85b): -0.004; OR10a DoOR response ([7]; OR10a): -0.003; OR47a DoOR response ([8]; OR47a): 0.018
12 | CCCCCOC(C)=O [pentyl acetate] |  |  |  | 0.08 | 0.0108 | 0.06 |  |  |  |  |  |  |  | 0.07954 | 0 | 0.06097 | 0.08 | 0.00 | 0.06 | 0.64 | OR13a DoOR response ([2]; OR13a): 0.39; OR49b DoOR response ([4]; OR49b): 0.022; OR85b DoOR response ([6]; OR85b): 0.56; OR10a DoOR response ([7]; OR10a): 0.03; OR47a DoOR response ([8]; OR47a): 0.82
